Results taken from PubChem BioAssay AID1259407 (Chemical Carcinogenesis Research Information System (CCRIS), 2018).
Activity calls are given as the source filed them. No rule for the calls is given here.

Tested on: CCRIS mutagenicity, Ames/micronucleus/aberration tests
Assay: CCRIS mutagenicity studies
[1] = Test System: AMES SALMONELLA TYPHIMURIUM, Strain/Indicator: TA98, Metabolic Activation: NONE, Method: PREINCUBATION
[2] = Test System: AMES SALMONELLA TYPHIMURIUM, Strain/Indicator: TA98, Metabolic Activation: NONE, Method: STANDARD PLATE

Which results are given for `CCOc1cccc([N+](=O)[O-])c1`?
mutagenic call [1]: inactive; negative; mutagenic call (Test System: AMES SALMONELLA TYPHIMURIUM, Strain/Indicator: TA98, Method: PREINCUBATION): inactive; negative; mutagenic call (Test System: AMES SALMONELLA TYPHIMURIUM, Strain/Indicator: TA100, Metabolic Activation: NONE, Method: PREINCUBATION): inactive; negative; mutagenic call (Test System: AMES SALMONELLA TYPHIMURIUM, Strain/Indicator: TA100, Method: PREINCUBATION): inactive; negative; mutagenic call (Test System: AMES SALMONELLA TYPHIMURIUM, Strain/Indicator: TA1535, Metabolic Activation: NONE, Method: PREINCUBATION): inactive; negative; mutagenic call (Test System: AMES SALMONELLA TYPHIMURIUM, Strain/Indicator: TA1535, Method: PREINCUBATION): inactive; negative; mutagenic call (Test System: AMES SALMONELLA TYPHIMURIUM, Strain/Indicator: TA1537, Metabolic Activation: NONE, Method: PREINCUBATION): inactive; negative; mutagenic call (Test System: AMES SALMONELLA TYPHIMURIUM, Strain/Indicator: TA1537, Method: PREINCUBATION): inactive; negative; mutagenic call (Test System: AMES SALMONELLA TYPHIMURIUM, Strain/Indicator: TA1538, Metabolic Activation: NONE, Method: PREINCUBATION): inactive; negative; mutagenic call (Test System: AMES SALMONELLA TYPHIMURIUM, Strain/Indicator: TA1538, Method: PREINCUBATION): inactive; negative

What does the source list for `O=[N+]([O-])c1ccc2c(c1)sc1ccccc12`?
mutagenic call (Test System: AMES SALMONELLA TYPHIMURIUM, Strain/Indicator: TA98(1,8-DNP6), Metabolic Activation: NONE, Method: PREINCUBATION): active; positive; mutagenic call (Test System: AMES SALMONELLA TYPHIMURIUM, Strain/Indicator: TA98(NR), Metabolic Activation: NONE, Method: PREINCUBATION): active; positive; mutagenic call (Test System: AMES SALMONELLA TYPHIMURIUM, Strain/Indicator: TA98(NR), Metabolic Activation: RAT LIVER S-9, 3-METHYLCHOLANTHRENE (10%), Method: PREINCUBATION): active; positive; mutagenic call [1]: active; positive

Which mutagenic call (Test System: AMES SALMONELLA TYPHIMURIUM, Strain/Indicator: TA98, Metabolic Activation: NONE, Method: SUSPENSION/PLATE) does the source give for `[Cl][Sn]([Cl])([c]1ccccc1)[c]1ccccc1` here?
The mutagenic call was “inactive; negative”.

What about the mutagenic call (Test System: AMES SALMONELLA TYPHIMURIUM, Strain/Indicator: TA100, Metabolic Activation: NONE, Method: SUSPENSION/PLATE) of the same compound?
The mutagenic call was “inactive; negative”.

How did the mutagenic call (Test System: AMES SALMONELLA TYPHIMURIUM, Strain/Indicator: TA1537, Metabolic Activation: NONE, Method: STANDARD PLATE) turn out when `CS(=O)(=O)Nc1ccc(Nc2c3ccccc3nc3ccc(N=[N+]=[N-])cc23)cc1` was run?
Its mutagenic call is “active; positive”.

`O=C1NCCN1c1nccs1` was tested. Which mutagenic call [2] did it give?
The mutagenic call was “active; positive”.

With `CC1(c2ccc(Oc3ccccc3)cc2)OC(=O)N(Nc2ccccc2)C1=O` (stereo unspecified) as the compound, how does the mutagenic call (End Point: In vitro chromosomal aberrations, Test System: Human (male and female) lymphocytes, Metabolic Activation: None) read?
The mutagenic call was “inactive; negative”.

What about the mutagenic call (End Point: In vitro chromosomal aberrations, Test System: Human (male and female) lymphocytes, Metabolic Activation: S-9) of the same compound?
Its mutagenic call is “inactive; negative”.

And the mutagenic call (End Point: In vivo micronucleus, Test System: Bone marrow polychromatic erythrocytes, Species: Mouse, Strain/Sex: Crl:CD-1(ICR)BR/Male and female)?
Its mutagenic call is “inactive; negative”.

And the mutagenic call (End Point: UDS, Species: Rat, Strain/Sex: Sprague-Dawley Crl:CD BR/Male, Route: Oral)?
The mutagenic call was “inactive; negative”.

What about the mutagenic call (Test System: Ames Salmonella typhimurium, Strain/Indicator: TA97, Metabolic Activation: None, Method: Plate incorporation) of the same compound?
Its mutagenic call is “inactive; negative”.

And the mutagenic call (Test System: Ames Salmonella typhimurium, Strain/Indicator: TA97, Metabolic Activation: Rat, Liver, S-9, Method: Plate incorporation)?
The mutagenic call was “inactive; negative”.

And the mutagenic call (Test System: Ames Salmonella typhimurium, Strain/Indicator: TA98, Metabolic Activation: None, Method: Plate incorporation)?
Its mutagenic call is “inactive; negative”.

What about the mutagenic call (Test System: Ames Salmonella typhimurium, Strain/Indicator: TA98, Metabolic Activation: Rat, Liver, S-9, Method: Plate incorporation) of the same compound?
Its mutagenic call is “inactive; negative”.

And the mutagenic call (Test System: Ames Salmonella typhimurium, Strain/Indicator: TA100, Metabolic Activation: None, Method: Plate incorporation)?
Its mutagenic call is “inactive; negative”.

What about the mutagenic call (Test System: Ames Salmonella typhimurium, Strain/Indicator: TA100, Metabolic Activation: Rat, Liver, S-9, Method: Plate incorporation) of the same compound?
Its mutagenic call is “inactive; negative”.

What about the mutagenic call (Test System: Ames Salmonella typhimurium, Strain/Indicator: TA1535, Metabolic Activation: None, Method: Plate incorporation) of the same compound?
Its mutagenic call is “inactive; negative”.

And the mutagenic call (Test System: Ames Salmonella typhimurium, Strain/Indicator: TA1535, Metabolic Activation: Rat, Liver, S-9, Method: Plate incorporation)?
The mutagenic call was “inactive; negative”.

What about the mutagenic call (Test System: Chinese hamster ovary cells, Strain/Indicator: CHO-K1-BH4 (HGPRT), Metabolic Activation: None, Method: Suspension/plate?) of the same compound?
The mutagenic call was “inactive; negative”.

What about the mutagenic call (Test System: Chinese hamster ovary cells, Strain/Indicator: CHO-K1-BH4 (HGPRT), Metabolic Activation: Rat, Liver, S-9, Method: Suspension/plate?) of the same compound?
Its mutagenic call is “inactive; negative”.

And the mutagenic call (Test System: E. coli, Strain/Indicator: WP2 uvrA (pKM101), Metabolic Activation: None, Method: Plate incorporation)?
The mutagenic call was “inactive; negative”.

What about the mutagenic call (Test System: E. coli, Strain/Indicator: WP2 uvrA (pKM101), Metabolic Activation: Rat, Liver, S-9, Method: Plate incorporation) of the same compound?
The mutagenic call was “inactive; negative”.

For `Clc1ccccc1-c1nc2ccccc2o1`, which mutagenic call [2] is on record?
Its mutagenic call is “inactive; negative”.

And the mutagenic call (Test System: AMES SALMONELLA TYPHIMURIUM, Strain/Indicator: TA98, Metabolic Activation: S-9, Method: STANDARD PLATE)?
The mutagenic call was “inactive; negative”.
